Common to all, as to experiment: KinomeScan profiling
Common to all, as to type: binding

One experiment concerns the target T1, MAK (Homo sapiens, UniProt P20794).
T1 sequence (P20794 1-623): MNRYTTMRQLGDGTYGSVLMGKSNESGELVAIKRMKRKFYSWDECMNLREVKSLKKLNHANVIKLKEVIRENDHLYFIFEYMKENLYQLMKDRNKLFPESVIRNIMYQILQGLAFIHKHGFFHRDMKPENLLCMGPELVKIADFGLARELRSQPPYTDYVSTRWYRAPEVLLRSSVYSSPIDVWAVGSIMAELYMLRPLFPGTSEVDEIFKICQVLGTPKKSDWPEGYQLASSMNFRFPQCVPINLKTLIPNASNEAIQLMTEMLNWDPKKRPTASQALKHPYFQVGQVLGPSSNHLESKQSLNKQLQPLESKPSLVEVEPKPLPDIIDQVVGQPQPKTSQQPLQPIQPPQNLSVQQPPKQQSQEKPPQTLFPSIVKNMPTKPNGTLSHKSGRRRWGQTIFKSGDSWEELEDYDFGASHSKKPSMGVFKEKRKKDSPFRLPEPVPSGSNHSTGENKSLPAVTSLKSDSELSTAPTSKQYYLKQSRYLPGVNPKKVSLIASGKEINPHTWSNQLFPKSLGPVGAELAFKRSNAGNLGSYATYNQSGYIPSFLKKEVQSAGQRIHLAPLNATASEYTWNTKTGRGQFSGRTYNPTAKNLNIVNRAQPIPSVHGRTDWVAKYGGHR
As to conditions: read-out: % control. The essentials: (§1)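 First, compounds in DMSO are added at 1 μM to each of 468 kinase assays. Next, RLU signals are normalised between positive control (0%) and DMSO (100%). Finally, kinases under 35% are flagged active.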

Another experiment deals with EGFR(L858R, T790M) (Homo sapiens, UniProt P00533, L858R/T790M). As to conditions: read-out: % control. The essentials:
as §1

The target in a further experiment is EPHA5 (Homo sapiens, UniProt P54756). As to conditions: EPHA5, 1 μM; read-out: % control. In short, it runs like this: as §1
Chain of EPHA5 (P54756 25-1037): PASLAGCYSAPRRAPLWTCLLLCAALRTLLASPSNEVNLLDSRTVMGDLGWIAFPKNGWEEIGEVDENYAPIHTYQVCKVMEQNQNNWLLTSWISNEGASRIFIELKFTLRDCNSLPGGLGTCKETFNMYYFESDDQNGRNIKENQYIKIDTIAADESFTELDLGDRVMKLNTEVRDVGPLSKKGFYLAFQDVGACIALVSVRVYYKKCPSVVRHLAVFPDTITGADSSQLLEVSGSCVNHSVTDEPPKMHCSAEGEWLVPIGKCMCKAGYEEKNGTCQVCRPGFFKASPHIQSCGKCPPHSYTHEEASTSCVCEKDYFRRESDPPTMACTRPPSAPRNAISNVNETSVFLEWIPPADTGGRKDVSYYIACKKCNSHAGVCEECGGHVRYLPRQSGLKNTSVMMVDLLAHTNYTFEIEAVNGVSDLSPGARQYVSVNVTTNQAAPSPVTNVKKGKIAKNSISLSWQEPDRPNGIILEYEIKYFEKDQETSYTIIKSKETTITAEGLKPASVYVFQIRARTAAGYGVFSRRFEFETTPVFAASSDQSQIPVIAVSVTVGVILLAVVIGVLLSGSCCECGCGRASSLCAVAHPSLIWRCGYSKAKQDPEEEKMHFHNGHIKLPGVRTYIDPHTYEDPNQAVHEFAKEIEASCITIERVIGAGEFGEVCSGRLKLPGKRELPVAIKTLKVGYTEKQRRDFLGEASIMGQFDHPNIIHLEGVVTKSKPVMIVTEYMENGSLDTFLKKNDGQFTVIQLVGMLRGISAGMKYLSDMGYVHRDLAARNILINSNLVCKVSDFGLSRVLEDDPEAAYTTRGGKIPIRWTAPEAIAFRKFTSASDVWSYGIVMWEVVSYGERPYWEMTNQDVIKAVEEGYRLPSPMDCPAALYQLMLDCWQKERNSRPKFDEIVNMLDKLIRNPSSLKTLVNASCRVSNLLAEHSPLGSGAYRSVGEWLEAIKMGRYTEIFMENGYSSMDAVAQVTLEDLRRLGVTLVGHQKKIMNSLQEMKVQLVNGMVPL
The next experiment addresses BTK (Homo sapiens, UniProt Q06187). As to conditions: read-out: % control. The essentials: as §1
Another experiment addresses MLK3 (Homo sapiens, UniProt Q16584). As to conditions: MLK3, 1 μM; read-out: % control. In short, it runs like this: as §1
The target of the next experiment is T2, GAK (Homo sapiens, UniProt O14976).
T2 sequence (O14976 1-1311): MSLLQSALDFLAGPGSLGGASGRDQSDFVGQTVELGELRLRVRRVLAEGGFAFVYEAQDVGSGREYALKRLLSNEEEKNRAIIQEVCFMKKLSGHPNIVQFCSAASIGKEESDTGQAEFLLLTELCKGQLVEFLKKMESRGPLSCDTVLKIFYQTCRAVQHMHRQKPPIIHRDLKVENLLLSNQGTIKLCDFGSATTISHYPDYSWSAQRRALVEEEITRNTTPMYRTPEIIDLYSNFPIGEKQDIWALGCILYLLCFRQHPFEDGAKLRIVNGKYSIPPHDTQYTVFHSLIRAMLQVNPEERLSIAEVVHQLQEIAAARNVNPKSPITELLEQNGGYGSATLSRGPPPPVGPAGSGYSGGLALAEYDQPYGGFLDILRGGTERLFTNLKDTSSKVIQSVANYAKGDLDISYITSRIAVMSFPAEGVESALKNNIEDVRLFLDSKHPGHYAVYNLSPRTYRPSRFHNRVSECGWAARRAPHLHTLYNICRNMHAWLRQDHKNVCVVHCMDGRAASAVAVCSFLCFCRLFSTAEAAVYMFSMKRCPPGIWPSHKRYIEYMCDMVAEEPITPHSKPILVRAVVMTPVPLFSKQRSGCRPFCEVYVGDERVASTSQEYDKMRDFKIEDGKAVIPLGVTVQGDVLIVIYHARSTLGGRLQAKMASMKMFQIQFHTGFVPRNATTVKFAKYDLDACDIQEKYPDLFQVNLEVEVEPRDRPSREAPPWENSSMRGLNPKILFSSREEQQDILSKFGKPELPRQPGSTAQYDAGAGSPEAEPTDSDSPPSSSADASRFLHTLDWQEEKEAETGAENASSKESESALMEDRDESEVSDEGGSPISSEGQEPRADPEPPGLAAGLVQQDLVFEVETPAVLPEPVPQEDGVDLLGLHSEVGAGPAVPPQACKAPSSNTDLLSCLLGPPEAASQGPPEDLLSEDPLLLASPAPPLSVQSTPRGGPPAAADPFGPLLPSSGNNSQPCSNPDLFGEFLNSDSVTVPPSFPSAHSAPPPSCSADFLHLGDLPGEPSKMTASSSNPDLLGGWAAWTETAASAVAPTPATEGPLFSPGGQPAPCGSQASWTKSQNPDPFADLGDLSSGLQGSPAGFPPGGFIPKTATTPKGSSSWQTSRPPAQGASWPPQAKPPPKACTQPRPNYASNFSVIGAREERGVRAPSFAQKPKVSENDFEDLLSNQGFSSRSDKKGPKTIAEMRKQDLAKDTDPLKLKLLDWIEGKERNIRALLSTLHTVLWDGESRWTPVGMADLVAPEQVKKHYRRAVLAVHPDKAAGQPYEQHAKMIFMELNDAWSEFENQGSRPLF
Particulars: read-out: % control. The essentials: as §1

For experiment [1], the target named is T3, RSK2(Kin.Dom.1-N-terminal) (Homo sapiens, UniProt P51812).
T3 construct: RSK2(Kin.Dom.1-N-terminal)
T3 sequence (P51812 68-327 limits assumed): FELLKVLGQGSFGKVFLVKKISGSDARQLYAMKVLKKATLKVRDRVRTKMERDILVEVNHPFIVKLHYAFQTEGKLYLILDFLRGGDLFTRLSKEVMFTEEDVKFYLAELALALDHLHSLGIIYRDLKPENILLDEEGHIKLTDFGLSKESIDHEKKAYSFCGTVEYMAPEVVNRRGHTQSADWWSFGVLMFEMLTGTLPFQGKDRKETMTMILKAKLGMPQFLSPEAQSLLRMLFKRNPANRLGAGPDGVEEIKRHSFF
Particulars: read-out: % control. In short, it runs like this: as §1

Molecules are shown by their SMILES.

Chain of BTK (Q06187 whole entry): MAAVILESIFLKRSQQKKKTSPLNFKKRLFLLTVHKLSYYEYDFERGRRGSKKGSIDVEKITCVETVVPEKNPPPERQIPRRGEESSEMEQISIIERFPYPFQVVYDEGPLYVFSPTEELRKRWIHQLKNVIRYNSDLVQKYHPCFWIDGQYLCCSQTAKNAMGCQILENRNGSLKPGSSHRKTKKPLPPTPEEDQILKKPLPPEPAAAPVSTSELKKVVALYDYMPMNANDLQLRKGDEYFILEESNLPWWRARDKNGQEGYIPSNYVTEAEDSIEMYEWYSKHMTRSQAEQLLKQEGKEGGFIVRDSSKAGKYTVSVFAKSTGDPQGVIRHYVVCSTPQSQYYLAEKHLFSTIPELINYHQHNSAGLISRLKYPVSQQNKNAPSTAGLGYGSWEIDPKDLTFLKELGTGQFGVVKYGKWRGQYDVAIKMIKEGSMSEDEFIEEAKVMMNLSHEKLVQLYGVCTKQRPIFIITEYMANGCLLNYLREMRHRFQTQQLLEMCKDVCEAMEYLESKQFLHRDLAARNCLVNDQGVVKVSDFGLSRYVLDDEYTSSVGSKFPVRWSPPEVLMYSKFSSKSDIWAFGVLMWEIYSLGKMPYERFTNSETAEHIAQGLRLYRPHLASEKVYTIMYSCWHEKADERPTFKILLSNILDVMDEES
Chain of EGFR(L858R, T790M) (P00533 25-1210 T790M/L858R): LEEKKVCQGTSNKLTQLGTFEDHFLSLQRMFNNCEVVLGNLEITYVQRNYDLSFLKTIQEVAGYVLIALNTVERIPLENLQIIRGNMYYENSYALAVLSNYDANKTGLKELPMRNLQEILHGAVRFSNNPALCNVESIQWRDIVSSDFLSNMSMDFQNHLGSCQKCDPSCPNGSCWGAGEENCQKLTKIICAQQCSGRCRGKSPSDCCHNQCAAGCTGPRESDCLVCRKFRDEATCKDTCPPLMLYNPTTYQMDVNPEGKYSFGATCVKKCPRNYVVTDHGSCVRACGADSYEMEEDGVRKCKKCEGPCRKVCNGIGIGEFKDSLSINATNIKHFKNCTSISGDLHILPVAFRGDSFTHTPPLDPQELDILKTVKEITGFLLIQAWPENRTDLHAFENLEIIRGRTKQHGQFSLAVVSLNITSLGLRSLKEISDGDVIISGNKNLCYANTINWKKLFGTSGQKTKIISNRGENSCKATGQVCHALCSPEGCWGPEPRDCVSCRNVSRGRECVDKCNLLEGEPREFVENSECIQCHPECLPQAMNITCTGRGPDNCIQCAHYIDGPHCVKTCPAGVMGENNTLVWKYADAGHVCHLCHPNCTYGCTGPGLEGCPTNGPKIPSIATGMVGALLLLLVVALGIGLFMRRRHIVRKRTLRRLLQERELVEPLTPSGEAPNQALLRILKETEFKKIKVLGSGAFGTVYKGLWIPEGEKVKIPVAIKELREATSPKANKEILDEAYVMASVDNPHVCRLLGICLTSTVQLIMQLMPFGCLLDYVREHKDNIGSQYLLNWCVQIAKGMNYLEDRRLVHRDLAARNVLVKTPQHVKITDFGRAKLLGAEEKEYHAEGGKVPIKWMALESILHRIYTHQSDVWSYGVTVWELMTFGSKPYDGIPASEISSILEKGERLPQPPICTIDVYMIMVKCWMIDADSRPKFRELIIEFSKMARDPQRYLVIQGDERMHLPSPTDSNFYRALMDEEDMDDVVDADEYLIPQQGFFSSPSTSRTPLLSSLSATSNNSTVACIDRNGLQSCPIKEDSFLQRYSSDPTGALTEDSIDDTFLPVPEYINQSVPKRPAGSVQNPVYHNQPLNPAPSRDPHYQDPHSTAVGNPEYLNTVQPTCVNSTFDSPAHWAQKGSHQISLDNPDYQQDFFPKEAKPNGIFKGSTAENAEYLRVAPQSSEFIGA
Chain of MLK3 (Q16584 whole entry): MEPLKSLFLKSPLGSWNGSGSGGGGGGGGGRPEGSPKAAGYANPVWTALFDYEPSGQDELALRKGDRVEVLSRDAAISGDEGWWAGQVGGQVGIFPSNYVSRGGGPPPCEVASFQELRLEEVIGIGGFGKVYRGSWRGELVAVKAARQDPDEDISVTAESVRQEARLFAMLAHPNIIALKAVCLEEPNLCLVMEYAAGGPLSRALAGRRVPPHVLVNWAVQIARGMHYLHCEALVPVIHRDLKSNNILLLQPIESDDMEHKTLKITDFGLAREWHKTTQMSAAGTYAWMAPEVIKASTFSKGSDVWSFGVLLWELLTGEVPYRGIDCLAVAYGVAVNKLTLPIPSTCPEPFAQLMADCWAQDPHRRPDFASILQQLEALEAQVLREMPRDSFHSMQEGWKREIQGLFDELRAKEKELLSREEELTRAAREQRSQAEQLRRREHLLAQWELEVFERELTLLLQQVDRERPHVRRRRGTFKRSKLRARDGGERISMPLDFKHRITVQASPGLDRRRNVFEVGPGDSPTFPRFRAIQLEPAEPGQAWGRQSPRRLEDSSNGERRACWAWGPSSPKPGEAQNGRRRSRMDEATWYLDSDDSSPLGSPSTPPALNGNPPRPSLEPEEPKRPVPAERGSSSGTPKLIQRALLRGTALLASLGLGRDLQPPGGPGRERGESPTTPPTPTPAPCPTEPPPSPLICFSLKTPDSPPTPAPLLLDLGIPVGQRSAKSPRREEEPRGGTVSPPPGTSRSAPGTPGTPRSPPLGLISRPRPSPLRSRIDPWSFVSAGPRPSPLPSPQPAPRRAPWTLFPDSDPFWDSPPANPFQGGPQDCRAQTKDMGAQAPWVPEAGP

Consider `CNc1c(-c2ccc(C(=O)N3CCC(N4CCOCC4)CC3)cc2)cnc2[nH]cc(Cl)c12` [Compound 96, (4-(3-chloro-4-(methylamino)-1H-pyrrolo[2,3-b]pyridin-5-yl)phenyl)(4-morpholinopiperidin-1-yl)methanone], for which the remaining binding at 1 µM is 97% on MAK; 98% on EGFR(L858R, T790M); 100% on EPHA5; 78% at BTK; 99% on MLK3; 99% on GAK. Further, the remaining binding at 1 µM in experiment [1] was 54%.
`O=C(c1ccc(-c2cnc3[nH]cc(Cl)c3c2NC2CCCC2)cc1)N1CCC(N2CCOCC2)CC1` [Compound 101, (4-(3-chloro-4-(cyclopentylamino)-1H-pyrrolo[2,3-b]pyridin-5-yl)phenyl)(4-morpholinopiperidin-1-yl)methanone]: the remaining binding at 1 µM came out at 87% at MAK; 100% on EGFR(L858R, T790M); 98% on EPHA5; 100% on BTK; 100% at MLK3; 99% at GAK. The remaining binding at 1 µM in experiment [1] was 65%.
As for `CNc1c(-c2cnn([C@H]3CCN(C(C)=O)C[C@@H]3F)c2)cnc2[nH]cc(Cl)c12` [Compound 77, 1-((3S,4S)-4-(4-(3-chloro-4-(methylamino)-1H-pyrrolo[2,3-b]pyridin-5-yl)-1H-pyrazol-1-yl)-3-fluoropiperidin-1-yl)ethan-1-one], the remaining binding at 1 µM was 100% at MAK; 99% on EGFR(L858R, T790M); 96% on EPHA5; 68% on BTK; 93% at MLK3; 100% on GAK. For the same compound, in experiment [1], the remaining binding at 1 µM was 54%.

(Values after patent publication US12275731B2, “Azaindole inhibitors of wild-type and mutant forms of LRRK2” (DANA-FARBER CANCER INSTITUTE, INC., priority 2018, dated 2025).)
